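Tested at 5 concentrations; 48 h exposure; 96-well plates; endpoints linearly interpolated, else capped at highest concentration. TGI is the concentration that stops growth completely.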
Each compound was assayed on NCI-H226 lung (assay: NCI anticancer screen, dose series, 48 h).

| Compound | TGI |
| --- | --- |
| COc1cccc2c1C(=O)c1c(O)c3c(c(O)c1C2=O)C[C@@](O)(C(=O)CO)C[C@@H]3OC1CC(N(C)C)C(O)C(C)O1 (stereo not given in full) | 0.0814 µM |
| COC(=O)N/N=C(/CC1(O)C(=O)Nc2ccc([N+](=O)[O-])cc21)c1ccccc1 (stereo not given) | 98.3 µM |

The compounds below were run on HOP-92 NSCLC (assay: NCI anticancer screen, dose series, 48 h).

| Compound | TGI |
| --- | --- |
| COc1cccc2c1C(=O)c1c(O)c3c(c(O)c1C2=O)C[C@@](O)(C(=O)CO)C[C@@H]3OC1CC(N(C)C)C(O)C(C)O1 (stereo not given in full) | 0.312 µM |
| COC(=O)N/N=C(/CC1(O)C(=O)Nc2ccc([N+](=O)[O-])cc21)c1ccccc1 (stereo not given) | > 100 µM |

What follows are compounds tested on HOP-18 NSCLC (assay: NCI anticancer screen, dose series, 48 h).

| Compound | TGI |
| --- | --- |
| COC(=O)/C(C#N)=C1\CCC(OC)N1 (stereo not given) | > 100 µM |
| O=C(O)[C@@H](NS(=O)(=O)c1ccc(F)cc1)c1ccccc1 | > 100 µM |
| COc1cccc2c1C(=O)c1c(O)c3c(c(O)c1C2=O)C[C@@](O)(C(=O)CO)C[C@@H]3OC1CC(N(C)C)C(O)C(C)O1 (stereo not given in full) | 2.95 µM |

What follows are compounds tested on MALME-3M melanoma (assay: NCI anticancer screen, dose series, 48 h).

| Compound | TGI |
| --- | --- |
| COC(=O)/C(C#N)=C1\CCC(OC)N1 (stereo not given) | > 100 µM |
| O=C(O)[C@@H](NS(=O)(=O)c1ccc(F)cc1)c1ccccc1 | > 100 µM |
| COc1cccc2c1C(=O)c1c(O)c3c(c(O)c1C2=O)C[C@@](O)(C(=O)CO)C[C@@H]3OC1CC(N(C)C)C(O)C(C)O1 (stereo not given in full) | 0.0576 µM |
| COC(=O)N/N=C(/CC1(O)C(=O)Nc2ccc([N+](=O)[O-])cc21)c1ccccc1 (stereo not given) | > 75.4 µM |

Each compound was assayed on M14 melanoma (assay: NCI anticancer screen, dose series, 48 h).

| Compound | TGI |
| --- | --- |
| COC(=O)/C(C#N)=C1\CCC(OC)N1 (stereo not given) | > 100 µM |
| O=C(O)[C@@H](NS(=O)(=O)c1ccc(F)cc1)c1ccccc1 | > 100 µM |
| COc1cccc2c1C(=O)c1c(O)c3c(c(O)c1C2=O)C[C@@](O)(C(=O)CO)C[C@@H]3OC1CC(N(C)C)C(O)C(C)O1 (stereo not given in full) | 0.104 µM |
| COC(=O)N/N=C(/CC1(O)C(=O)Nc2ccc([N+](=O)[O-])cc21)c1ccccc1 (stereo not given) | > 64.8 µM |

These compounds were tested on SK-MEL-5 melanoma (assay: NCI anticancer screen, dose series, 48 h).

| Compound | TGI |
| --- | --- |
| COC(=O)/C(C#N)=C1\CCC(OC)N1 (stereo not given) | > 100 µM |
| O=C(O)[C@@H](NS(=O)(=O)c1ccc(F)cc1)c1ccccc1 | > 100 µM |
| COc1cccc2c1C(=O)c1c(O)c3c(c(O)c1C2=O)C[C@@](O)(C(=O)CO)C[C@@H]3OC1CC(N(C)C)C(O)C(C)O1 (stereo not given in full) | 0.0455 µM |
| COC(=O)N/N=C(/CC1(O)C(=O)Nc2ccc([N+](=O)[O-])cc21)c1ccccc1 (stereo not given) | > 60.9 µM |

These compounds were tested on SF-539 CNS (assay: NCI anticancer screen, dose series, 48 h).

| Compound | TGI |
| --- | --- |
| COC(=O)/C(C#N)=C1\CCC(OC)N1 (stereo not given) | > 100 µM |
| O=C(O)[C@@H](NS(=O)(=O)c1ccc(F)cc1)c1ccccc1 | > 100 µM |
| COc1cccc2c1C(=O)c1c(O)c3c(c(O)c1C2=O)C[C@@](O)(C(=O)CO)C[C@@H]3OC1CC(N(C)C)C(O)C(C)O1 (stereo not given in full) | 0.121 µM |
| COC(=O)N/N=C(/CC1(O)C(=O)Nc2ccc([N+](=O)[O-])cc21)c1ccccc1 (stereo not given) | > 100 µM |

Each compound was assayed on SF-295 CNS (assay: NCI anticancer screen, dose series, 48 h).

| Compound | TGI |
| --- | --- |
| COC(=O)/C(C#N)=C1\CCC(OC)N1 (stereo not given) | > 100 µM |
| O=C(O)[C@@H](NS(=O)(=O)c1ccc(F)cc1)c1ccccc1 | > 100 µM |
| COc1cccc2c1C(=O)c1c(O)c3c(c(O)c1C2=O)C[C@@](O)(C(=O)CO)C[C@@H]3OC1CC(N(C)C)C(O)C(C)O1 (stereo not given in full) | 0.173 µM |
| COC(=O)N/N=C(/CC1(O)C(=O)Nc2ccc([N+](=O)[O-])cc21)c1ccccc1 (stereo not given) | 39.2 µM |

The compounds below were run on HCC-2998 colon (assay: NCI anticancer screen, dose series, 48 h).

| Compound | TGI |
| --- | --- |
| COC(=O)/C(C#N)=C1\CCC(OC)N1 (stereo not given) | > 100 µM |
| O=C(O)[C@@H](NS(=O)(=O)c1ccc(F)cc1)c1ccccc1 | > 100 µM |
| COc1cccc2c1C(=O)c1c(O)c3c(c(O)c1C2=O)C[C@@](O)(C(=O)CO)C[C@@H]3OC1CC(N(C)C)C(O)C(C)O1 (stereo not given in full) | 0.258 µM |
| COC(=O)N/N=C(/CC1(O)C(=O)Nc2ccc([N+](=O)[O-])cc21)c1ccccc1 (stereo not given) | > 100 µM |

These compounds were tested on UACC-62 melanoma (assay: NCI anticancer screen, dose series, 48 h).

| Compound | TGI |
| --- | --- |
| COC(=O)/C(C#N)=C1\CCC(OC)N1 (stereo not given) | > 100 µM |
| O=C(O)[C@@H](NS(=O)(=O)c1ccc(F)cc1)c1ccccc1 | > 100 µM |
| COc1cccc2c1C(=O)c1c(O)c3c(c(O)c1C2=O)C[C@@](O)(C(=O)CO)C[C@@H]3OC1CC(N(C)C)C(O)C(C)O1 (stereo not given in full) | 0.0261 µM |
| COC(=O)N/N=C(/CC1(O)C(=O)Nc2ccc([N+](=O)[O-])cc21)c1ccccc1 (stereo not given) | > 54.7 µM |

The compounds below were run on MOLT-4 leukemia (assay: NCI anticancer screen, dose series, 48 h).

| Compound | TGI |
| --- | --- |
| COC(=O)/C(C#N)=C1\CCC(OC)N1 (stereo not given) | > 100 µM |
| O=C(O)[C@@H](NS(=O)(=O)c1ccc(F)cc1)c1ccccc1 | > 100 µM |
| COc1cccc2c1C(=O)c1c(O)c3c(c(O)c1C2=O)C[C@@](O)(C(=O)CO)C[C@@H]3OC1CC(N(C)C)C(O)C(C)O1 (stereo not given in full) | 0.299 µM |
| COC(=O)N/N=C(/CC1(O)C(=O)Nc2ccc([N+](=O)[O-])cc21)c1ccccc1 (stereo not given) | > 66.7 µM |

The compounds below were run on EKVX NSCLC (assay: NCI anticancer screen, dose series, 48 h).

| Compound | TGI |
| --- | --- |
| COC(=O)/C(C#N)=C1\CCC(OC)N1 (stereo not given) | > 100 µM |
| O=C(O)[C@@H](NS(=O)(=O)c1ccc(F)cc1)c1ccccc1 | > 100 µM |
| COc1cccc2c1C(=O)c1c(O)c3c(c(O)c1C2=O)C[C@@](O)(C(=O)CO)C[C@@H]3OC1CC(N(C)C)C(O)C(C)O1 (stereo not given in full) | 0.413 µM |
| COC(=O)N/N=C(/CC1(O)C(=O)Nc2ccc([N+](=O)[O-])cc21)c1ccccc1 (stereo not given) | > 93.4 µM |

Each compound was assayed on TK-10 renal (assay: NCI anticancer screen, dose series, 48 h).

| Compound | TGI |
| --- | --- |
| COC(=O)/C(C#N)=C1\CCC(OC)N1 (stereo not given) | > 100 µM |
| O=C(O)[C@@H](NS(=O)(=O)c1ccc(F)cc1)c1ccccc1 | > 100 µM |
| COc1cccc2c1C(=O)c1c(O)c3c(c(O)c1C2=O)C[C@@](O)(C(=O)CO)C[C@@H]3OC1CC(N(C)C)C(O)C(C)O1 (stereo not given in full) | 2.28 µM |
| COC(=O)N/N=C(/CC1(O)C(=O)Nc2ccc([N+](=O)[O-])cc21)c1ccccc1 (stereo not given) | 57.6 µM |

What follows are compounds tested on NCI-H23 lung (assay: NCI anticancer screen, dose series, 48 h).

| Compound | TGI |
| --- | --- |
| COC(=O)/C(C#N)=C1\CCC(OC)N1 (stereo not given) | > 100 µM |
| O=C(O)[C@@H](NS(=O)(=O)c1ccc(F)cc1)c1ccccc1 | > 100 µM |
| COc1cccc2c1C(=O)c1c(O)c3c(c(O)c1C2=O)C[C@@](O)(C(=O)CO)C[C@@H]3OC1CC(N(C)C)C(O)C(C)O1 (stereo not given in full) | 0.0946 µM |
| COC(=O)N/N=C(/CC1(O)C(=O)Nc2ccc([N+](=O)[O-])cc21)c1ccccc1 (stereo not given) | > 60.1 µM |

The compounds below were run on ACHN renal (assay: NCI anticancer screen, dose series, 48 h).

| Compound | TGI |
| --- | --- |
| COC(=O)/C(C#N)=C1\CCC(OC)N1 (stereo not given) | > 100 µM |
| O=C(O)[C@@H](NS(=O)(=O)c1ccc(F)cc1)c1ccccc1 | > 100 µM |
| COc1cccc2c1C(=O)c1c(O)c3c(c(O)c1C2=O)C[C@@](O)(C(=O)CO)C[C@@H]3OC1CC(N(C)C)C(O)C(C)O1 (stereo not given in full) | 0.0966 µM |
| COC(=O)N/N=C(/CC1(O)C(=O)Nc2ccc([N+](=O)[O-])cc21)c1ccccc1 (stereo not given) | > 72.2 µM |

The compounds below were run on COLO 205 colon (assay: NCI anticancer screen, dose series, 48 h).

| Compound | TGI |
| --- | --- |
| COC(=O)/C(C#N)=C1\CCC(OC)N1 (stereo not given) | > 100 µM |
| O=C(O)[C@@H](NS(=O)(=O)c1ccc(F)cc1)c1ccccc1 | > 100 µM |
| COc1cccc2c1C(=O)c1c(O)c3c(c(O)c1C2=O)C[C@@](O)(C(=O)CO)C[C@@H]3OC1CC(N(C)C)C(O)C(C)O1 (stereo not given in full) | 0.0186 µM |
| COC(=O)N/N=C(/CC1(O)C(=O)Nc2ccc([N+](=O)[O-])cc21)c1ccccc1 (stereo not given) | > 82.5 µM |

What follows are compounds tested on SK-MEL-2 melanoma (assay: NCI anticancer screen, dose series, 48 h).

| Compound | TGI |
| --- | --- |
| COC(=O)/C(C#N)=C1\CCC(OC)N1 (stereo not given) | > 100 µM |

Source: PubChem BioAssay (NCI)
